Data reported in ChEMBL document CHEMBL5303304, “EUbOPEN Chemogenomics Library - IncuCyte” (2023).

What was measured:
Assay type in all cases: toxicity, cell-based
HEK-293T = experiment: Incucyte cell viability with HEK293T; conditions: human, 10 µM, compound concentration 10 uM
U2OS = experiment: Incucyte cell viability with U2OS; conditions: human, 10 µM, compound concentration 10 uM
Fibroblast = experiment: Incucyte cell viability with human fibroblast; conditions: 10 µM, compound concentration 10 uM
Note: unitless GR value; below 1 slowed growth and below 0 cell loss.

| Compound | Growth Rate (HEK-293T; 6 h, replicate number 1) | Growth Rate (HEK-293T; 12 h, replicate number 1) | Growth Rate (HEK-293T; 18 h, replicate number 1) | Growth Rate (HEK-293T; 18 h, replicate number 2) | Growth Rate (HEK-293T; 24 h, replicate number 1) | Growth Rate (U2OS; 0 h, replicate number 1) | Growth Rate (U2OS; 0 h, replicate number 2) | Growth Rate (Fibroblast; 6 h, replicate number 1) | Growth Rate (Fibroblast; 6 h, replicate number 2) | Growth Rate (Fibroblast; 12 h, replicate number 1) | Growth Rate (Fibroblast; 12 h, replicate number 2) | Growth Rate (Fibroblast; 18 h, replicate number 2) | Growth Rate (U2OS; 6 h, replicate number 1) | Growth Rate (U2OS; 18 h, replicate number 1) | Growth Rate (U2OS; 24 h, replicate number 1) | Growth Rate (Fibroblast; 0 h, replicate number 2) | Growth Rate (Fibroblast; 24 h, replicate number 1) | Growth Rate (Fibroblast; 24 h, replicate number 2) | Growth Rate (HEK-293T; 0 h, replicate number 1) | Growth Rate (U2OS; 12 h, replicate number 1) | other results |
| --- | --- | --- | --- | --- | --- | --- | --- | --- | --- | --- | --- | --- | --- | --- | --- | --- | --- | --- | --- | --- | --- |
| CCOC(=O)C1=C[C@]2(CC)CCCN3CCc4c(n1c1ccccc41)[C@@H]32 [VINPOCETINE] | 0.46 | 1 | 0.95 | 0.89 | 0.94 | -0.74 | -0.97 | 0.56 | -0.97 | -1 | 0.32 | 0.85 | – | – | – | – | – | – | – | – | Growth Rate (HEK-293T; 0 h, replicate number 2): 0.71; Growth Rate (HEK-293T; 12 h, replicate number 2): 0.83; Growth Rate (U2OS; 6 h, replicate number 2): 0.42; Growth Rate (U2OS; 12 h, replicate number 2): 0.83; Growth Rate (U2OS; 18 h, replicate number 2): 0.73; Growth Rate (U2OS; 24 h, replicate number 2): 0.79 |
| CNC(=O)c1cccc(-c2ccc3c(N4CCOC[C@@H]4C)nc(N4CCOC[C@@H]4C)nc3n2)c1 [VISTUSERTIB] | -0.56 | -0.41 | -0.28 | -0.39 | -0.18 | 0.02 | – | – | – | – | 0.26 | 0.18 | 0.98 | 0.93 | 0.56 | -0.6 | 0.66 | 0.33 | – | – | Growth Rate (HEK-293T; 6 h, replicate number 2): -0.82; Growth Rate (HEK-293T; 12 h, replicate number 2): -0.55; Growth Rate (HEK-293T; 24 h, replicate number 2): -0.28; Growth Rate (Fibroblast; 18 h, replicate number 1): 0.78 |
| COc1cccc(CNc2ccc(S(=O)(=O)Nc3nc4ccccc4s3)cc2)c1O [VLX-1005] | – | – | 0.96 | – | – | – | – | – | 0.25 | – | 0.76 | 0.84 | 0.62 | – | 0.99 | – | 1 | 0.84 | 0.18 | 0.89 | – |
| CN[C@@H](C)C(=O)N[C@H]1CN(C(=O)CC(C)C)CC[C@H]2CC[C@@H](C(=O)NC(c3ccccc3)c3ccccc3)N2C1=O [XEVINAPANT] | 0.36 | 0.86 | 0.71 | 0.97 | 0.92 | – | 0.1 | -0.46 | 0.35 | 0.68 | 0.73 | 0.78 | – | – | – | 0.68 | 0.9 | 0.88 | 0.08 | – | – |
| Cc1cccc(F)c1C(=O)Nc1cnc(-c2cc3c(cc2Cl)OC(F)(F)O3)cn1 [ZEGOCRACTIN] | -0.06 | 0.19 | 0.24 | 0.31 | 0.34 | 0.13 | -0.79 | – | -0.57 | -0.81 | 0.2 | 0.4 | 0.26 | 0.72 | 0.8 | -0.42 | 0.84 | 0.26 | – | 0.45 | Growth Rate (HEK-293T; 6 h, replicate number 2): -0.48; Growth Rate (HEK-293T; 12 h, replicate number 2): -0.06; Growth Rate (U2OS; 6 h, replicate number 2): 0.28; Growth Rate (U2OS; 12 h, replicate number 2): 0.78; Growth Rate (U2OS; 18 h, replicate number 2): 0.9; Growth Rate (U2OS; 24 h, replicate number 2): 0.92; Growth Rate (Fibroblast; 18 h, replicate number 1): 0.77 |
| Cn1c(=O)n(CCCO)c(=O)c2c1nc(Oc1cccc(OC(F)(F)F)c1)n2Cc1ccc(Cl)cc1 [ZERENCOTREP] | 0.54 | 0.92 | 0.98 | – | – | – | -0.21 | -0.36 | -0.98 | -1 | 0.88 | 0.6 | – | 0.88 | 0.94 | – | – | 0.54 | 0.5 | 0.8 | Growth Rate (HEK-293T; 0 h, replicate number 2): 0.33; Growth Rate (HEK-293T; 6 h, replicate number 2): 0.64 |
| H-LVVYPWT-OH [SPINORPHIN] | 0.99 | – | – | – | – | 0.44 | -1 | -0.34 | -0.61 | -1 | 0.52 | 0.87 | 0.61 | 0.82 | – | -0.78 | 0.41 | 0.94 | 0.9 | 0.76 | Growth Rate (HEK-293T; 0 h, replicate number 2): 0.94; Growth Rate (U2OS; 6 h, replicate number 2): 0.08; Growth Rate (U2OS; 12 h, replicate number 2): 0.43; Growth Rate (U2OS; 18 h, replicate number 2): 0.66; Growth Rate (U2OS; 24 h, replicate number 2): 0.92; Growth Rate (Fibroblast; 0 h, replicate number 1): -0.25; Growth Rate (Fibroblast; 18 h, replicate number 1): 0.38 |
